Tests used:
Experiment in all cases: relative viability (nuclei count vs DMSO), 5 days (fraction); higher = more cells survive
NCI-H2126 = test system: NCI-H2126
Method in brief: (§1)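 A single step with final 0.05% Triton X-100, 1% formaldehyde and 1 ug/ml Hoechst fixed the cells and stained nuclei 5 days after treatment. Lung cancer cell lines in 1536-well plates had been treated by pin tool the day after seeding with one drug alone or a fixed anchor-drug dose plus five library-drug doses (not always all listed) in √10 steps, and nuclei were counted on 4× images. Relative viability is the ratio of nuclei in treated wells to nuclei in vehicle wells, taken as the median of duplicate plates.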

LCLC-103H = test system: LCLC-103H
Method in brief: as §1

HOP-62 = test system: HOP-62
Method in brief: as §1

NCI-H441 = test system: NCI-H441
Method in brief: as §1

NCI-H1993 = test system: NCI-H1993
Method in brief: as §1

HCC-827 = test system: HCC-827
Method in brief: as §1

SK-MES-1 = test system: SK-MES-1
Method in brief: as §1

BEN = test system: BEN
Method in brief: as §1

ChaGo-K-1 = test system: ChaGo-K-1
Method in brief: as §1

LXF-289 = test system: LXF-289
Method in brief: as §1

NCI-H661 = test system: NCI-H661
Method in brief: as §1

PC-14 = test system: PC-14
Method in brief: as §1

LOU-NH91 = test system: LOU-NH91
Method in brief: as §1

NCI-H647 = test system: NCI-H647
Method in brief: as §1

NCI-H1355 = test system: NCI-H1355
Method in brief: as §1

NCI-H1437 = test system: NCI-H1437
Method in brief: as §1

NCI-H2170 = test system: NCI-H2170
Method in brief: as §1

NCI-H1944 = test system: NCI-H1944
Method in brief: as §1

LK-2 = test system: LK-2
Method in brief: as §1

RERF-LC-KJ = test system: RERF-LC-KJ
Method in brief: as §1

NCI-H1666 = test system: NCI-H1666
Method in brief: as §1

EKVX = test system: EKVX
Method in brief: as §1

## CN1CCN(CCOc2cc(OC3CCOCC3)c3c(Nc4c(Cl)ccc5c4OCO5)ncnc3c2)CC1 [Saracatinib] + Nc1nc2[nH]cc(CCc3ccc(C(=O)N[C@@H](CCC(=O)O)C(=O)O)cc3)c2c(=O)[nH]1 [Pemetrexed] (partner 0.2 µM)
NCI-H2126; first compound 0.02 µM
  relative viability: 0.772
NCI-H2126; first compound 0.2 µM
  relative viability: 0.664
NCI-H2126; first compound 0.6325 µM
  relative viability: 0.659
NCI-H2126; first compound 2 µM
  relative viability: 0.558
LCLC-103H; first compound 0.02 µM
  relative viability: 0.444
LCLC-103H; first compound 0.2 µM
  relative viability: 0.329
LCLC-103H; first compound 0.6325 µM
  relative viability: 0.451
LCLC-103H; first compound 2 µM
  relative viability: 0.48
HOP-62; first compound 0.02 µM
  relative viability: 0.377
HOP-62; first compound 0.2 µM
  relative viability: 0.33
HOP-62; first compound 0.6325 µM
  relative viability: 0.332
HOP-62; first compound 2 µM
  relative viability: 0.375
NCI-H441; first compound 0.02 µM
  relative viability: 0.28
NCI-H441; first compound 0.2 µM
  relative viability: 0.238
NCI-H441; first compound 0.6325 µM
  relative viability: 0.316
NCI-H441; first compound 2 µM
  relative viability: 0.272
NCI-H1993; first compound 0.02 µM
  relative viability: 0.626
NCI-H1993; first compound 0.2 µM
  relative viability: 0.519
NCI-H1993; first compound 0.6325 µM
  relative viability: 0.642
NCI-H1993; first compound 2 µM
  relative viability: 0.471
HCC-827; first compound 0.02 µM
  relative viability: 0.286
HCC-827; first compound 0.2 µM
  relative viability: 0.158
HCC-827; first compound 0.6325 µM
  relative viability: 0.189
HCC-827; first compound 2 µM
  relative viability: 0.168
SK-MES-1; first compound 0.02 µM
  relative viability: 0.923
SK-MES-1; first compound 0.2 µM
  relative viability: 0.905
SK-MES-1; first compound 0.6325 µM
  relative viability: 0.886
SK-MES-1; first compound 2 µM
  relative viability: 0.466
BEN; first compound 0.02 µM
  relative viability: 0.916
BEN; first compound 0.2 µM
  relative viability: 0.824
BEN; first compound 0.6325 µM
  relative viability: 0.727
BEN; first compound 2 µM
  relative viability: 0.667
ChaGo-K-1; first compound 0.02 µM
  relative viability: 0.28
ChaGo-K-1; first compound 0.2 µM
  relative viability: 0.254
ChaGo-K-1; first compound 0.6325 µM
  relative viability: 0.26
ChaGo-K-1; first compound 2 µM
  relative viability: 0.269
LXF-289; first compound 0.02 µM
  relative viability: 0.875
LXF-289; first compound 0.2 µM
  relative viability: 0.902
LXF-289; first compound 0.6325 µM
  relative viability: 0.985
LXF-289; first compound 2 µM
  relative viability: 1
NCI-H661; first compound 0.02 µM
  relative viability: 0.942
NCI-H661; first compound 0.2 µM
  relative viability: 0.84
NCI-H661; first compound 0.6325 µM
  relative viability: 0.846
NCI-H661; first compound 2 µM
  relative viability: 0.699
PC-14; first compound 0.02 µM
  relative viability: 0.133
PC-14; first compound 0.2 µM
  relative viability: 0.114
PC-14; first compound 0.6325 µM
  relative viability: 0.118
PC-14; first compound 2 µM
  relative viability: 0.111
LOU-NH91; first compound 0.02 µM
  relative viability: 0.397
LOU-NH91; first compound 0.2 µM
  relative viability: 0.417
LOU-NH91; first compound 0.6325 µM
  relative viability: 0.472
LOU-NH91; first compound 2 µM
  relative viability: 0.457
NCI-H647; first compound 0.02 µM
  relative viability: 0.191
NCI-H647; first compound 0.2 µM
  relative viability: 0.148
NCI-H647; first compound 0.6325 µM
  relative viability: 0.159
NCI-H647; first compound 2 µM
  relative viability: 0.138
NCI-H1355; first compound 0.02 µM
  relative viability: 1
NCI-H1355; first compound 0.2 µM
  relative viability: 1.02
NCI-H1355; first compound 0.6325 µM
  relative viability: 1
NCI-H1355; first compound 2 µM
  relative viability: 1.06
NCI-H1437; first compound 0.02 µM
  relative viability: 0.329
NCI-H1437; first compound 0.2 µM
  relative viability: 0.247
NCI-H1437; first compound 0.6325 µM
  relative viability: 0.277
NCI-H1437; first compound 2 µM
  relative viability: 0.286
NCI-H2170; first compound 0.02 µM
  relative viability: 0.25
NCI-H2170; first compound 0.2 µM
  relative viability: 0.253
NCI-H2170; first compound 0.6325 µM
  relative viability: 0.277
NCI-H2170; first compound 2 µM
  relative viability: 0.202
NCI-H1944; first compound 0.02 µM
  relative viability: 0.533
NCI-H1944; first compound 0.2 µM
  relative viability: 0.663
NCI-H1944; first compound 0.6325 µM
  relative viability: 0.626
NCI-H1944; first compound 2 µM
  relative viability: 0.429
LK-2; first compound 0.02 µM
  relative viability: 0.32
LK-2; first compound 0.2 µM
  relative viability: 0.199
LK-2; first compound 0.6325 µM
  relative viability: 0.205
LK-2; first compound 2 µM
  relative viability: 0.161
RERF-LC-KJ; first compound 0.02 µM
  relative viability: 0.477
RERF-LC-KJ; first compound 0.2 µM
  relative viability: 0.463
RERF-LC-KJ; first compound 0.6325 µM
  relative viability: 0.47
RERF-LC-KJ; first compound 2 µM
  relative viability: 0.441
NCI-H1666; first compound 0.02 µM
  relative viability: 0.877
NCI-H1666; first compound 0.2 µM
  relative viability: 0.508
NCI-H1666; first compound 0.6325 µM
  relative viability: 0.878
NCI-H1666; first compound 2 µM
  relative viability: 0.841
EKVX; first compound 0.02 µM
  relative viability: 0.429
EKVX; first compound 0.6325 µM
  relative viability: 0.498
EKVX; first compound 2 µM
  relative viability: 0.369

Reference: the supplement of paper PMC10307832
